pKi: −log10 of the molar value.
How the values were obtained:
Assay type in all cases: biochemical
MMP-2 (gelatinase) = target: T1, MMP-2 (gelatinase) (Homo sapiens, UniProt P08253); test: Quantitative fluorescence assay, inhibition of MMP-2; conditions: 10 μM inhibitor; no explicit Ki value since the dixon plot is non-linear
T1 construct: endogenous in cells; host or cells: human dermal fibroblasts (secreted into culture medium)
T1 sequence (P08253 110-660): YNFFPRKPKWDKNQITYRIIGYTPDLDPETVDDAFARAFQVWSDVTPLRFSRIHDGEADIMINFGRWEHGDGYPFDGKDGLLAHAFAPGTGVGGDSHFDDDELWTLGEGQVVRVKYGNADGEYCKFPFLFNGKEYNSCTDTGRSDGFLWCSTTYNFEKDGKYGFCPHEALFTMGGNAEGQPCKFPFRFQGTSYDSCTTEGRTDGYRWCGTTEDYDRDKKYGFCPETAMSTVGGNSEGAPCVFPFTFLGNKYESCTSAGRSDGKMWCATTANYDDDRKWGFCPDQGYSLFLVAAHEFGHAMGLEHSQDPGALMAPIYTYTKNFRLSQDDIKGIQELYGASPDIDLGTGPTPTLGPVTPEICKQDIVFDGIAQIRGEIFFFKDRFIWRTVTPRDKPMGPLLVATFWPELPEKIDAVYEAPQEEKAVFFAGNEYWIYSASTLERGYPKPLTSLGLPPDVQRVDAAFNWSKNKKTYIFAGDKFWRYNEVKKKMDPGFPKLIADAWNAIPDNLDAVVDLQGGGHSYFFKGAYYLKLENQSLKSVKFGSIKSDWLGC
Description: Inhibition of the Matrix Metalloproteinase-2 (MMP-2)
MMP-2 (gelatinase) is supplied by cultivated dermal fibroblasts to the culture medium in considerable amounts and is thus easily accessible.
For this purpose, human dermal fibroblasts are obtained according to established standard methods and cultivated and the cell-free culture supernatant is treated with trypsin. Trypsin is then inactivated with a specific inhibitor (TLCK) and active MMP-2 is partially purified by affinity chromatography on gelatin sepharose and subsequent gel filtration on sepharose. MMP-2 was identified and characterized by the availability of a commercial immunoassay.
(§1) Quantitative Fluorescence Assay for Matrix Metalloproteinases
(§2) The fluorescent group Mca is separated from the internal quencher Dpa by enzymatic cleavage of the synthetic substrate Mca-Pro-Leu-Gly-Leu-Dpa-Ala-Arg-NH2 using the respective collagenase. This is accompanied by a great increase in fluorescence in the measuring batch, which can be quantified using a fluorimeter (λex 328 nm, λem 393 nm) and proceeds linearly within the first few minutes. A certain specificity of the test to matrix metalloproteinases follows from the amino acid sequence-Pro-Leu-Gly-Leu-in the substrate, on the one hand, and from the select incubation conditions, on the other hand. Matrix metalloproteinases cleave the substrate at the Gly-Leu bond. The proteolytic residual activity of pre-incubated batches of enzyme and inhibitor is measured, the substrate and enzyme concentrations having been kept constant and the inhibitor concentration having been varied. Three series of measurements using a different substrate concentration were made for each tested inhibitor. The enzyme activity is calculated in fluorescence units per min. on the basis of the time-sensitive fluorescence increase. The Ki values were determined graphically according to the DIXON method (1953) by applying the reciprocal reaction rate 1/v (y axis) against inhibitor concentration (x axis).
(§3) 2 μl inhibitor dissolved in DMSO, or DMSO alone (non-inhibitory approach) 4 μl enzyme (MMP-2 or MMP-9 or catalytic domain of MMP-8)
(§4) 5 min. preliminary incubation of the enzyme-inhibitor mixture at room temperature while stirring start of the reaction with 10 μl substrate dissolved in DMSO recording of the time-sensitive fluorescence increase over a period of 2 min.
(§5) Inhibition of human MMPs by the inhibitors of general formulae Ia and Ib according to the invention

[1] = target: T2, recombinant catalytic domain of MMP-8 (Homo sapiens, UniProt P22894); test: Quantitative fluorescence assay, inhibition of catalytic domain of MMP-8; conditions: for MMP-8 inhibition with 10 μM: 10 μM inhibitor, no explicit Ki value since the dixon plot is non-linear
T2 construct: instead of the whole enzyme only its enzymatically active catalytic domain was cloned into E. coli; made in house; host or cells: E. coli
Description: Cloning and Expression of the Catalytic MMP-8 Domain
The catalytic MMP-8 domain was used as another test enzyme because it has a high degree of stability and is also available as an active enzyme and therefore needs not be activated, which is in consideration as one of the most frequent causes of error since the mercury compounds used for the activation often interfere with the test system and/or the enzyme and in this way can falsify the measuring results. The cloning strategy was directed towards the circumstance that instead of the whole enzyme only its enzymatically active catalytic domain was cloned into E. coli.
The cloning and expression of the recombinant catalytic MMP-8 domain was carried out in accordance with the statements made by SCHNIERER et al. (Schnierer S., Kleine T., Gote T., Hillemann A., Knäuper V., Tschesche H.: The recombinant catalytic domain of human neutrophil collagenase lacks type I collagen substrate specificity. Biochem Biophys Res Comm (1993), vol. 191, No. 2, 319-326).
as §1, §2, §3, §4, §5

MMP-9 = target: T3, MMP-9 (Homo sapiens, UniProt P14780); test: Quantitative fluorescence assay, inhibition of MMP-9; conditions: for MMP-9 inhibition with 10 μM: 10 μM inhibitor, no explicit Ki value since the dixon plot is non-linear; for pKi: DIXON method
T3 construct: from tissue; host or cells: human buffy coat (blood leukocytes)
Description: Preparation of the Human Collagenase MMP-9
Native MMP-9 was obtained reproducibly and with good yield and purity from human Buffy Coat. For this purpose, Buffy Coat is brought to a final concentration of 0,4% using 10% (v/v) triton X-100, shaken on ice for 30 min. and then 1 vol. double binding buffer (40 mM Tris-HCl, pH 7.5, 10 mM CaCl2, 1 M NaCl, 0.2% (v/v) triton X-100) is added and shaking on ice is continued for another 30 min.
The solution is centrifuged off at 16,000 rpm on an SS-34 rotor at 4° C. for 15 min. and filtered on glass wool. The filtrate is batched with gelatin agarose equilibrated with binding buffer and shaken on ice for 1 hour.
The charged gelatin agarose is transferred to a column and rinsed in protein-free manner using at least 10 vol. binding buffer. The bound MMP-9 is eluted with 2 gel volumes binding buffer plus 5% (v/v) DMSO.
For an exchange of buffers and simultaneous separation of minor MMP-2 contaminations the eluate can be separated on sephadex G-75 by means of gel filtration. Buffer I (20 mM Tris-HCl, pH 7.5, 5 mM CaCl2, 100mM NaCl, 0.1% (v/v) triton X-100) is used for this purpose.
The resulting eluate contains MMP-9 in the three known configurations: monomer, homodimer, heterodimer. The purity of the enzyme is about 90%, the rest of the foreign proteins being fibronectin and extremely small amounts of TIMPs.
The latent enzyme is activated by incubation at 37° C. using 1/100 vol. trypsin (10 mg/ml), for 30-60 min. Trypsin is inhibited by adding 1 mM PMSF or with a specific inhibitor (TLCK).
as §1
as §2, with “A certain specificity of the test to matrix metalloproteinases follows from the amino acid sequence-Pro-Leu-Gly-Leu-in the substrate, on the one hand, and from the select incubation conditions, on the other hand. Matrix metalloproteinases cleave the substrate at the Gly-Leu bond.” left out, “Three series of measurements using a different substrate concentration were made for each tested inhibitor.” left out, “axis). […]” for “axis).”
5 min. preliminary incubation of the enzyme-inhibitor mixture at room temperature while stirring start of the reaction with 10 μl substrate dissolved in DMSO recording of the time-sensitive fluorescence increase over a period of 2 min. […]

[2] = target: T4, MT1-MMP (recombinant catalytic domain of MMP-14) (Homo sapiens, UniProt P50281); test: Quantitative fluorescence assay, inhibition of MT1-MMP; conditions: for pKi: DIXON method
T4 construct: recombinant catalytic domain of MMP-14
Description: In particular when used as medicaments, specific inhibitors would only influence the desired target enzymes but not disturb the balanced interplay of the other MMPs, thus helping to avoid possible undesired side-effects.
as §1, §2, §5

T3 sequence (P14780 107-707 limits assumed): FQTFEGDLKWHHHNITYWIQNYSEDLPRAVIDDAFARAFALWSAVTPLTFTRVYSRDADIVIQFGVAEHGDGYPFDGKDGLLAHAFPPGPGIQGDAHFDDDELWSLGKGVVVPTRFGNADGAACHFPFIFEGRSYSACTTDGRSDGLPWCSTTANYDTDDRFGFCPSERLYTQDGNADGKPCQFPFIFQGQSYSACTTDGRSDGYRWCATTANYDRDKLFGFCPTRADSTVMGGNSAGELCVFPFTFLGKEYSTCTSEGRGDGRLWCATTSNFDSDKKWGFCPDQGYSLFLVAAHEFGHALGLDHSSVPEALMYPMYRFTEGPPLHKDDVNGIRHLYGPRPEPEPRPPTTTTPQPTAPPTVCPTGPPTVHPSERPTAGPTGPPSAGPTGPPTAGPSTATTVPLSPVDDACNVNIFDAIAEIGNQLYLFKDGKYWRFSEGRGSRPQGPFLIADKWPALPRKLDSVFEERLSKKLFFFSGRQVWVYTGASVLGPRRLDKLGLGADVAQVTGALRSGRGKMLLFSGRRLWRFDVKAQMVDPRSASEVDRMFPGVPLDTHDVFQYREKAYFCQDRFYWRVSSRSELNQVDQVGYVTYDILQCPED
T2 sequence (P22894 100-262 limits assumed): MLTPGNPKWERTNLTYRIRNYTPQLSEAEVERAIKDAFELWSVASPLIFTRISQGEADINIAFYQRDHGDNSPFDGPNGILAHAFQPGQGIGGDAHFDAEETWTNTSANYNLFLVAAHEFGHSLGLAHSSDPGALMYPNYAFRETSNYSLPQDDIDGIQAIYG

Compound	MMP-2 inhibition with 10 μM (MMP-2 (gelatinase)) [%]	MMP-8 inhibition with 10 μM [1] [%]	MMP-9 inhibition with 10 μM (MMP-9) [%]	pKi [2]	pKi ([1]; DIXON method)	pKi (MMP-9)	MT1-MMP inhibition with 2.5 μM ([2]; 2.5 μM inhibitor, no explicit Ki value since the dixon plot is non-linear) [% inhi-]	MT1-MMP inhibition with 10 μM ([2]; 10 μM inhibitor, no explicit Ki value since the dixon plot is non-linear) [%]
O=c1c2ccccc2nc2n1[C@H](CS)CS2 (racemic) [Example 4, (R,S)-3-mercaptomethyl-2,3-dihydro-5H-thiazolo[2,3-b]quinazoline-5-one]	50	25	75	4.26	–	–	–	–
O=C(O)c1ccc2c(=O)n3c(nc2c1)S[C@@H](CS)C3 (racemic) [Example 3, (R,S)-8-carboxy-2-mercaptomethyl-2,3-dihydro-5H-thiazolo [2,3-b]quinazoline-5-one]	25	–	–	4.68	4.62	4.82	–	–
O=c1c2ccccc2nc2n1C[C@H](CS)S2 (racemic) [Example 1, (R,S)-2-Mercaptomethyl-2,3-dihydro-5H-thiazolo(2,3-b]-quinazoline-5-one]	70	80	–	–	–	–	50	–
O=c1c2ccc(Cl)cc2nc2n1C[C@H](CS)S2 (racemic) [Example 5, (R,S)-8-chloro-2-mercaptomethyl-2,3-dihydro-5H-thiazolo(2,3-b]quinazoline-5-one]	80	90	85	–	–	–	–	85
C[C@]1(CS)Cn2c(nc3ccccc3c2=O)S1 (racemic) [Example 2, (R,S)-2-mercaptomethyl-2-methyl-2,3-dihydro-5H-thiazolo[2,3-b]quinazoline-5-one]	50	85	–	5.40	–	6.00	–	–
